Results on three compounds are retold here after patent US9370517B2, “Substituted pyrazolopyrimidines as Akt kinase inhibitors” (Bayer Intellectual Property GmbH, priority 2012, dated 2016).

Usually inhibition stands for the relative decrease from the control value, in per cent. The term pIC50 denotes −log10 of the IC50, conventionally taken in molar units.

Test [1] has as its system KPL-4 breast cancer cell line. The experiment in a line: Tumor cell proliferation assay (CellTiter-Glo), KPL-4. Particulars: Homo sapiens, KPL4, 72 h drug exposure; for inhibition at 1.67 µM: read-out: KPL-4 median inhibition at 1.67 μM (%). It is filed as cell-based. Here is the method:
(§1) Biological Assay 4.0: Tumor Cell Proliferation Assays
(§2) Compounds were tested in a cell-based assay that measures the capacity of the compounds to inhibit tumour cell proliferation following a 72 h drug exposure. Cell viability is determined using CellTiter-Glow® (CTG, Promega, cat# G7571/2/3). The CellTiter-Glo® Luminescent Cell Viability Assay is a homogeneous method to determine the number of viable cells in culture. Detection is based on using the luciferase reaction to measure the amount of ATP from viable cells. The amount of ATP in cells correlates with cell viability. Within minutes after a loss of membrane integrity, cells lose the ability to synthesize ATP, and endogenous ATPases destroy any remaining ATP; thus the levels of ATP fall precipitously.
(§3) Cells were plated at 3000-5000 cells/well (depending on the cell lines) in 90 μL growth medium on MTPs (Corning; #3603, black plate, clear flat bottom). For each cell line assayed, cells were plated onto a separate plate for determination of […] at t=0 hour and t=72 hour time points. Following overnight incubation at 37° C., chemiluminescence values for the t=0 samples were determined after adding 10 μl medium and 100 μl CTG solution according to manufacture protocol. Plates for the t=72 hour time points were treated with compounds diluted into growth medium at ten times final concentration added in 10 μL to the cell culture plate. Cells were then incubated for 72 hours at 37° C. Chemiluminescence values for the t=72 hour samples were determined. […] Experiments were controlled using a reference compound as standard.
(§4) Preferred compounds of the present invention show in this assay an inhibition of cell growth of cell lines such as the KPL-4 breast cancer cell line and the MCF-7 breast tumour cell line ([…], hormone dependent) with a median IC50 of <10 μM, more preferably, median IC50≦1 μM.
For orientation: Cellular ATP, detected with luciferase, serves as a proxy for viable cell number.

A further test has as its system p-AKT1/2/3-S473. Briefly: Cellular p-AKT1/2/3-S473 assay in KPL-4 cells. It is filed as cell-based. Particulars: Homo sapiens, KPL4, read-out: pAKT-S473 median IC50, 2 hours treatment, read-out: pAKT-S743 median IC50. The procedure:
(§5) The molecular mechanism of action was investigated in a set of experiments to assess the inhibition of the PI3K-AKT-mTOR pathway in responsive cell lines such as KPL-4 breast tumour cell line (PIK3CA^H1047R, HER2^O/E and hormone independent). The phospho-substrates of PI3K-AKT-mTOR axis were used as the readouts to reflect pathway inhibition. Cells were seeded at 60-80% confluency per well in 96-well cell culture plates. After overnight incubation at 37° C. 5% CO2, cells were treated with compounds and vehicle at 37° C. for 2 hours. Thereafter, cells were lysed in 150 μl lysis buffer and the levels of phospho-AKT at 1308 and S473 and p-4E-BP1 at T70 sites were determined with the corresponding AlphaScreen® SureFire® assay kits (Perkin Elmer: 4E-BPI Assay Kit Cat # TRG4E2S10K; Akt 1/2/3 p-Ser 473 #TGRA4S500 and Akt 1/2/3 p-Thr 308 #TGRA3S500 as well as IgG detection Kit #6760617M) as described in the manuals. All measurements where at least done in duplicates and confirmed by independent repetition. Alternatively pAKT-S473 was measured using the “Akt Duplex” of the MULTI-SPOT® Assay System (Fa. Meso Scale Discovery, Cat# N41100B-1) following manufacturers instructions. Each assay used 20 μg of protein extract and measured total AKT and p-AKT content simultaneously in one well. All measurements where at least done in duplicates and confirmed by independent repetition. Values for P-AKT are expressed as percentage of P-AKT level compared to total-AKT content of the extracts.

Test [2] concerns MCF-7 breast tumour cell line. The experiment in a line: Tumor cell proliferation assay (CellTiter-Glo), MCF-7. The format is cell-based. Particulars: Homo sapiens, MCF7, 72 h drug exposure; for inhibition at 1.67 µM: read-out: MCF-7 median inhibition at 1.67 μM (%). Here is the method: as §1, §2, §3, §4
Test [3] deals with T1, His-tagged human recombinant kinase full-length Akt1 (Homo sapiens, UniProt P31749).
T1 construct: His-tagged human recombinant kinase full-length Akt1; His; purchased Invitrogen PV 3599; host or cells: insect cells
T1 sequence (P31749 whole entry): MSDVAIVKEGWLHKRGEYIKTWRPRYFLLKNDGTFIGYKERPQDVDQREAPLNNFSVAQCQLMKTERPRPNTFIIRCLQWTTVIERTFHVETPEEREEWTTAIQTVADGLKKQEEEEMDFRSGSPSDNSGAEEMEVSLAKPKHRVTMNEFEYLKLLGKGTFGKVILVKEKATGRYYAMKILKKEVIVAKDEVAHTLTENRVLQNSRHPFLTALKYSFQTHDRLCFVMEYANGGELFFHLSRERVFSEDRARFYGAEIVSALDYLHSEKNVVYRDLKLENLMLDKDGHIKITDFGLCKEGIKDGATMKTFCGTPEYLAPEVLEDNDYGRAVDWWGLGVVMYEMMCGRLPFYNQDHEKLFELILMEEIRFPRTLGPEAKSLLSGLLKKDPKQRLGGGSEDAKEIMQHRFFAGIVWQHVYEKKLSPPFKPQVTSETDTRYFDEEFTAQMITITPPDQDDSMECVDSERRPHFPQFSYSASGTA
The experiment in a line: Akt1 kinase assay (TR-FRET). Particulars: 10 μM ATP, 60 min at 22° C.; read-out: Akt1, median IC50. The format is biochemical. The source says: Biological Assay 1.0: Akt1 Kinase Assay
Akt1 inhibitory activity of compounds of the present invention was quantified employing the Akt1 TR-FRET assay as described in the following paragraphs.
His-tagged human recombinant kinase full-length Akt1 expressed in insect cells was purchased form Invitrogen (part number PV 3599). As substrate for the kinase reaction the biotinylated peptide biotin-Ahx-KKLNRTLSFAEPG (SEQ ID NO: 1) (C-terminus in amide form) was used which can be purchased e.g. from the company Biosynthan GmbH (Berlin-Buch, Germany).
(§6) For the assay 50 nl of a 100fold concentrated solution of the test compound in DMSO was pipetted into a black low volume 384well microtiter plate (Greiner Bio-One, Frickenhausen, Germany), 2 μl of a solution of Akt1 in assay buffer [50 mM TRIS/HCl pH 7.5, 5 mM MgCl2, 1 mM dithiothreitol, 0.02% (v/v) Triton X-100 (Sigma)]were added and the mixture was incubated for 15 min at 22° C. to allow prebinding of the test compounds to the enzyme before the start of the kinase reaction. Then the kinase reaction was started by the addition of 3 μl of a solution of adenosine-tri-phosphate (ATP, 16.7 μM=>final conc. in the 5 μl assay volume is 10 μM) and substrate (1.67 μM=>final conc. in the 5 μl assay volume is 1 μM) in assay buffer and the resulting mixture was incubated for a reaction time of 60 min at 22° C. […]
The resulting mixture was incubated 1 h at 22° C. to allow the binding of the biotinylated phosphorylated peptide to the streptavidine-XL665 and the antibodies. Subsequently the amount of phosphorylated substrate was evaluated by measurement of the resonance energy transfer from the anti-mouse-IgG-Eu-Chelate to the streptavidine-XL665. Therefore, the fluorescence emissions at 620 nm and 665 nm after excitation at 350 nm was measured in a HTRF reader, e.g. a Rubystar (BMG Labtechnologies, Offenburg, Germany) or a Viewlux (Perkin-Elmer). […]
(In TR-FRET formats the signal depends on donor and acceptor labels being close together.)

The subject of the next test is p-4E-BP1-T70. Briefly: Cellular p-4E-BP1-T70 assay in KPL-4 cells. It is filed as cell-based. Particulars: Homo sapiens, KPL4, 2 hours treatment, read-out: P4EBP1-T70 median IC50. Here is the method:
as §5

In test [4] the target is T2, His-tagged human recombinant kinase full-length Akt2 (Homo sapiens, UniProt P31751).
T2 construct: His-tagged human recombinant kinase full-length Akt2; His; purchased Invitrogen PV 3975; host or cells: insect cells
T2 sequence (P31751 whole entry): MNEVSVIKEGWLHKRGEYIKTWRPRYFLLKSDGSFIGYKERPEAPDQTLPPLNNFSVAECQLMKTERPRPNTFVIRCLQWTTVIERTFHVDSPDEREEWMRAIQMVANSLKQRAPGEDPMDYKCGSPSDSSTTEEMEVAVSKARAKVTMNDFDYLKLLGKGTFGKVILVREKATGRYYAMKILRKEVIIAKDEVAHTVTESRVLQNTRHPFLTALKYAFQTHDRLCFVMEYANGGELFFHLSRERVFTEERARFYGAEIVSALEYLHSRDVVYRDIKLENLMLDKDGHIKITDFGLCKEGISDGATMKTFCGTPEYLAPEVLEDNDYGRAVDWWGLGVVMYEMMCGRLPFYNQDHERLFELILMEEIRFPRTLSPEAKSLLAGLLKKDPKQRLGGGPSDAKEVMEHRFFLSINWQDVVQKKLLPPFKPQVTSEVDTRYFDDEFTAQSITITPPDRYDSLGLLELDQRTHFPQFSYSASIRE
Briefly: Akt2 kinase assay (TR-FRET). The format is biochemical. Particulars: 10 μM ATP, 60 min at 22° C.; read-out: Akt2, median IC50.
From the text: Biological Assay 2.0: Akt2 Kinase Assay
Akt2 inhibitory activity of compounds of the present invention was quantified employing the Akt2 TR-FRET assay as described in the following paragraphs.
His-tagged human recombinant kinase full-length Akt2 expressed in insect cells and activated by PDK1 was purchased from Invitrogen (part number PV 3975). As substrate for the kinase reaction the biotinylated peptide biotin-Ahx-KKLNRTLSFAEPG (SEQ ID NO: 1) (C-terminus in amide form) was used which can be purchased e.g. from the company Biosynthan GmbH (Berlin-Buch, Germany).
as §6, with “Akt2” for “Akt1”, “(Sigma)] were” for “(Sigma)]were”
The resulting mixture was incubated 1 h at 22° C. to allow the binding of the biotinylated phosphorylated peptide to the streptavidine-XL665 and the antibodies. Subsequently the amount of phosphorylated substrate was evaluated by measurement of the resonance energy transfer from the anti-mouse-IgG-Eu-Chelate to the streptavidine-XL665. Therefore, the fluorescence emissions at 620 nm and 665 nm after excitation at 350 nm was measured in a TR-FRET reader, e.g. a Rubystar (BMG Labtechnologies, Offenburg, Germany) or a Viewlux (Perkin-Elmer). […]

pIC50: −log10 of the molar value.

For the compound `CCc1cc(CC)n2nc(-c3ccc(C4(N)CCC4)cc3)c(-c3ccccc3)c2n1` [Example 2, 1-[4-(5,7-Diethyl-3-phenylpyrazolo[1,5-a]pyrimidin-2-yl)phenyl]-cyclobutanamine], the inhibition at 1.67 µM in test [1] was determined as 7.1%; in test [2] it was 24.5%. Also, the pIC50 is 5.66 in test [1]; 5.77 in the test on p-AKT1/2/3-S473; 5.70 in test [2]; 6.39 in test [3]; 5.43 in the test with p-4E-BP1-T70; 6.39 in test [4].
As for `Cc1cc(C)n2nc(-c3ccc(C4(N)CCC4)cc3)c(-c3ccccc3)c2n1` [Example 1, 1-[4-(5,7-Dimethyl-3-phenylpyrazolo[1,5-a]pyrimidin-2-yl)-phenyl]cyclobutanamine], the inhibition at 1.67 µM in test [1] was found to be 29.8%; in test [2], 47.4%. Further, the negative logarithm of the IC50 (pIC50) in test [1] is 5.72; with p-AKT1/2/3-S473, 6.89; in test [2] it was 5.74; in test [3], 7.18; in the test on p-4E-BP1-T70, 5.74; in test [4], 6.34.
With `NC1(c2ccc(-c3nn4c(C(F)(F)F)cc(C(F)(F)F)nc4c3-c3ccccc3)cc2)CCC1` [Example 3, 1-{4-[3-Phenyl-5,7-bis(trifluoromethyl)pyrazolo[1,5-a]pyrimidin-2-yl]phenyl}cyclobutanamine], the inhibition at 1.67 µM turned out to be 6.6% in test [1] and 25.6% in test [2]. The pIC50 in test [1] was 5.62; in the test on p-AKT1/2/3-S473, 5.74; in test [2] it was 5.70; in test [3], 6.49; with p-4E-BP1-T70, 5.48; in test [4], 6.07.
